According to patent US20100041089A1, “IMPROVED METHOD FOR DETECTING CHEMICAL […]” (priority 2006, published 2010):

Tested on: yeast genes (expressed mRNA)
Experiment: DNA chip measurement of expressed mRNA of yeast genes after culture with a toxic chemical substance
Format: cell-based, Saccharomyces cerevisiae S288C
Conditions: for level of expressed mRNA in the presence of chemical substance / level in the absence of chemical substance: cultured two hours with the chemical substance; for The level of expressed mRNA in the presence of chemical substance/The level of expressed mRNA in the absence of chemical substance: cultured two hours with substance
Method in brief: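 Two-hour exposure of growing S. cerevisiae S288C (YPD, 25° C) to a sublethal toxicant preceded RNA isolation. Fluorescent cDNA was hybridized to a whole-genome array; a treated-to-untreated signal ratio of two or more was taken as significant.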

`[Cl][Hg][Cl]` [(3), HgCl2] was tested. Which “level of expressed mRNA in the presence of chemical substance / level in the absence of chemical substance” value (yeast gene YJL097W) did it give?
Its value is 3.7.

And the “The level of expressed mRNA in the presence of chemical substance/The level of expressed mRNA in the absence of chemical substance” value (yeast gene YJL151C)?
The value was 3.2.

And the “The level of expressed mRNA in the presence of chemical substance/The level of expressed mRNA in the absence of chemical substance” value (yeast gene YJL152W)?
Its value is 1.8.

What about the “The level of expressed mRNA in the presence of chemical substance/The level of expressed mRNA in the absence of chemical substance” value (yeast gene YJL161W) of the same compound?
Its value is 1.5.

And the “The level of expressed mRNA in the presence of chemical substance/The level of expressed mRNA in the absence of chemical substance” value (yeast gene YJL171C)?
The value was 2.8.

What about the “The level of expressed mRNA in the presence of chemical substance/The level of expressed mRNA in the absence of chemical substance” value (yeast gene YJR008W) of the same compound?
Its value is 1.2.

What about the “level of expressed mRNA in the presence of chemical substance / level in the absence of chemical substance” value (yeast gene YJR030C) of the same compound?
The value was 0.9.

What about the “The level of expressed mRNA in the presence of chemical substance/The level of expressed mRNA in the absence of chemical substance” value (yeast gene YJR054W) of the same compound?
Its value is 0.3.

And the “level of expressed mRNA in the presence of chemical substance / level in the absence of chemical substance” value (yeast gene YKL051W)?
Its value is 4.7.

What about the “The level of expressed mRNA in the presence of chemical substance/The level of expressed mRNA in the absence of chemical substance” value (yeast gene YKL071W) of the same compound?
Its value is 5.4.

What about the “The level of expressed mRNA in the presence of chemical substance/The level of expressed mRNA in the absence of chemical substance” value (yeast gene YKL086W) of the same compound?
The value was 2.4.

What about the “level of expressed mRNA in the presence of chemical substance / level in the absence of chemical substance” value (yeast gene YKL097C) of the same compound?
Its value is 0.6.

And the “level of expressed mRNA in the presence of chemical substance / level in the absence of chemical substance” value (yeast gene YKL100C)?
The value was 5.0.

What about the “The level of expressed mRNA in the presence of chemical substance/The level of expressed mRNA in the absence of chemical substance” value (yeast gene YKL151C) of the same compound?
Its value is 1.7.

And the “The level of expressed mRNA in the presence of chemical substance/The level of expressed mRNA in the absence of chemical substance” value (yeast gene YKL153W)?
Its value is 2.0.

And the “The level of expressed mRNA in the presence of chemical substance/The level of expressed mRNA in the absence of chemical substance” value (yeast gene YKL195W)?
Its value is 0.4.

What about the “level of expressed mRNA in the presence of chemical substance / level in the absence of chemical substance” value (yeast gene YKR040C) of the same compound?
The value was 2.4.

What about the “The level of expressed mRNA in the presence of chemical substance/The level of expressed mRNA in the absence of chemical substance” value (yeast gene YKR091W) of the same compound?
The value was 0.9.

What about the “The level of expressed mRNA in the presence of chemical substance/The level of expressed mRNA in the absence of chemical substance” value (yeast gene YLR054C) of the same compound?
Its value is 0.4.

And the “The level of expressed mRNA in the presence of chemical substance/The level of expressed mRNA in the absence of chemical substance” value (yeast gene YLR149C)?
The value was 3.4.

And the “The level of expressed mRNA in the presence of chemical substance/The level of expressed mRNA in the absence of chemical substance” value (yeast gene YLR152C)?
Its value is 1.1.

What about the “The level of expressed mRNA in the presence of chemical substance/The level of expressed mRNA in the absence of chemical substance” value (yeast gene YLR194C) of the same compound?
The value was 1.3.

What about the “level of expressed mRNA in the presence of chemical substance / level in the absence of chemical substance” value (yeast gene YLR226W) of the same compound?
The value was 0.3.

And the “The level of expressed mRNA in the presence of chemical substance/The level of expressed mRNA in the absence of chemical substance” value (yeast gene YLR324W)?
Its value is 0.9.

What about the “level of expressed mRNA in the presence of chemical substance / level in the absence of chemical substance” value (yeast gene YLR338W) of the same compound?
The value was 1.4.

And the “The level of expressed mRNA in the presence of chemical substance/The level of expressed mRNA in the absence of chemical substance” value (yeast gene YLR350W)?
The value was 3.2.

And the “The level of expressed mRNA in the presence of chemical substance/The level of expressed mRNA in the absence of chemical substance” value (yeast gene YLR387C)?
The value was 0.8.

And the “level of expressed mRNA in the presence of chemical substance / level in the absence of chemical substance” value (yeast gene YLR392C)?
The value was 0.8.

And the “level of expressed mRNA in the presence of chemical substance / level in the absence of chemical substance” value (yeast gene YLR415C)?
The value was 6.7.

And the “level of expressed mRNA in the presence of chemical substance / level in the absence of chemical substance” value (yeast gene YLR427W)?
The value was 0.2.

And the “The level of expressed mRNA in the presence of chemical substance/The level of expressed mRNA in the absence of chemical substance” value (yeast gene YLR460C)?
The value was 2.0.

And the “level of expressed mRNA in the presence of chemical substance / level in the absence of chemical substance” value (yeast gene YML013W)?
The value was 0.4.

And the “level of expressed mRNA in the presence of chemical substance / level in the absence of chemical substance” value (yeast gene YML029W)?
The value was 1.3.

And the “level of expressed mRNA in the presence of chemical substance / level in the absence of chemical substance” value (yeast gene YML041C)?
Its value is 0.6.

What about the “level of expressed mRNA in the presence of chemical substance / level in the absence of chemical substance” value (yeast gene YML079W) of the same compound?
Its value is 1.1.

What about the “The level of expressed mRNA in the presence of chemical substance/The level of expressed mRNA in the absence of chemical substance” value (yeast gene YML117W) of the same compound?
The value was 0.9.

What about the “The level of expressed mRNA in the presence of chemical substance/The level of expressed mRNA in the absence of chemical substance” value (yeast gene YMR009W) of the same compound?
Its value is 0.5.

And the “The level of expressed mRNA in the presence of chemical substance/The level of expressed mRNA in the absence of chemical substance” value (yeast gene YMR067C)?
Its value is 1.1.

And the “level of expressed mRNA in the presence of chemical substance / level in the absence of chemical substance” value (yeast gene YMR068W)?
Its value is 0.8.

And the “level of expressed mRNA in the presence of chemical substance / level in the absence of chemical substance” value (yeast gene YMR071C)?
Its value is 1.1.

And the “The level of expressed mRNA in the presence of chemical substance/The level of expressed mRNA in the absence of chemical substance” value (yeast gene YMR090W)?
Its value is 2.3.

And the “The level of expressed mRNA in the presence of chemical substance/The level of expressed mRNA in the absence of chemical substance” value (yeast gene YMR095C)?
Its value is 1.6.

What about the “The level of expressed mRNA in the presence of chemical substance/The level of expressed mRNA in the absence of chemical substance” value (yeast gene YMR097C) of the same compound?
The value was 0.7.

What about the “The level of expressed mRNA in the presence of chemical substance/The level of expressed mRNA in the absence of chemical substance” value (yeast gene YMR102C) of the same compound?
Its value is 1.1.

What about the “The level of expressed mRNA in the presence of chemical substance/The level of expressed mRNA in the absence of chemical substance” value (yeast gene YMR107W) of the same compound?
Its value is 1.7.

And the “level of expressed mRNA in the presence of chemical substance / level in the absence of chemical substance” value (yeast gene YMR160W)?
Its value is 1.2.

And the “The level of expressed mRNA in the presence of chemical substance/The level of expressed mRNA in the absence of chemical substance” value (yeast gene YMR180C)?
Its value is 1.0.

And the “The level of expressed mRNA in the presence of chemical substance/The level of expressed mRNA in the absence of chemical substance” value (yeast gene YMR184W)?
The value was 1.0.

And the “The level of expressed mRNA in the presence of chemical substance/The level of expressed mRNA in the absence of chemical substance” value (yeast gene YMR191W)?
The value was 1.9.

What about the “The level of expressed mRNA in the presence of chemical substance/The level of expressed mRNA in the absence of chemical substance” value (yeast gene YMR295C) of the same compound?
Its value is 1.2.

And the “The level of expressed mRNA in the presence of chemical substance/The level of expressed mRNA in the absence of chemical substance” value (yeast gene YMR316W)?
Its value is 1.1.

And the “level of expressed mRNA in the presence of chemical substance / level in the absence of chemical substance” value (yeast gene YNL026W)?
The value was 1.3.

And the “The level of expressed mRNA in the presence of chemical substance/The level of expressed mRNA in the absence of chemical substance” value (yeast gene YNL044W)?
Its value is 2.3.
